Structures are written as SMILES. Values after ≈ are worked out from the molar mass of the structure shown. Where two headings read alike, the source gives them in different places. Bounds are passed on as bounds.

Experiment [1] has as its target T1, Human recombinant cathepsin S (Homo sapiens, UniProt P25774).
T1 construct: host or cells: murine myeloma NS0 cells
As to the kind of experiment: Cathepsin S (CatS) enzyme assay. The class given is biochemical. The protocol: 2. Enzyme Assays for the Peptidase Endothelin Converting Enzyme-1 (ECE-1) and for the Cysteine Protease Cathepsin S (CatS)
The assays were performed according to provider's (Ricerca Biosciences, LLC) protocols which in turn are based on literature procedures (for ECE-1 cf.: O. Valdenaire et al., Eur. J. Biochem. 1999, 264, 341-349; F. D. Russell, A. P. Davenport, Circ. Res. 1999, 84, 891-896; and for CatS: G P Shi et al., J. Biol. Chem. 1992, 267, 7258-62; D Brömme et al., J. Biol. Chem. 1993 268, 4832-4838.).
Human recombinant cathepsin S expressed in a murine myeloma NS0 cells is used. Test compound and/or vehicle is preincubated with 0.1 μg/ml enzyme in modified acetate buffer pH 4.5 for 15 minutes at 25° C. The reaction is initiated by addition of […] Z-Leu-Arg-AMC for another 30 minutes' incubation period. Determination of the amount of AMC formed is read spectrofluorimetrically at 360 nm/465 nm. […]
IC50 values were determined by a non-linear, least squares regression analysis using MathIQ™ (ID Business Solutions Ltd., UK). Inhibition constants K were calculated according to the equation of Cheng and Prusoff (Y. Cheng, W. H. Prusoff, Biochem. Pharmacol. 1973, 22, 3099-3108) using the observed IC50 of the tested compound, the concentration of radioligand employed in the assay, and the historical values for the KD of the ligand. The Hill coefficient (nH), defining the slope of the competitive binding curve, was calculated using MathIQ™.

Experiment [2] relates to S. aureus ATCC 29213, ATCC 25923, DSM 11729, DSM 46320, S. aureus 39. As to the kind of experiment: Antimicrobial assay, broth microdilution MIC, S. aureus strains. Conditions: Staphylococcus aureus. The class given is cell-based. Here is the method: (§1) The antimicrobial activities of the compounds were determined in 96-well plates (Greiner, polystyrene) by the standard NCCLS broth microdilution method (National Committee for Clinical Laboratory Standards 1993. Methods for dilution antimicrobial susceptibility tests for bacteria that grow aerobically, 3rd ed. Approved standard M7-A6. National Committee for Clinical laboratory standards, Wayne, Pa.) with slight modifications. Inocula of the microorganisms were diluted into Mueller-Hinton II (MH, cation adjusted) broth+0.002% P-80 and compared with a 0.5 McFarland standard to give appr. 10^6 colony forming units (CFU)/mL. Aliquots (50 μl) of inoculate were added to 50 μl of MH broth+0.002% P-80 containing the compounds in serial two-fold dilutions. The following microorganisms were used to determine antibiotic selectivity of the compounds: S. pneumoniae DSM 20566 11A11, 3313A6, 704CG4B21, 82BERG72; S. aureus ATCC 29213, ATCC 25923, DSM 11729, DSM 46320, S. aureus 39. Antimicrobial activities of the compounds were expressed as the minimal inhibitory concentration (MIC) in μg/mL at which no visible growth was observed after 18-20 hours of incubation at 36° C.

The subject of experiment [3] is S. pneumoniae DSM 20566 11A11, 3313A6, 704CG4B21, 82BERG72. As to the kind of experiment: Antimicrobial assay, broth microdilution MIC, S. pneumoniae strains. Conditions: Streptococcus pneumoniae, DSM20566; strain DSM 20566 (Table 32.7); read-out: MIC S. pneumoniae DSM 20566. The class given is cell-based. Here is the method:
as §1
Background: Broth dilution looks for growth in wells or tubes with falling amounts of substance.

Where [4] appears, read: strain ATCC 25923, read-out: MIC S. aureus ATCC 25923.
The mark [5] stands for this setting: strain ATCC 29213, read-out: MIC S. aureus ATCC 29213.
The mark [6] stands for this setting: strain DSM 11729, read-out: MIC S. aureus DSM 11729.
Setting [7] is: strain S. aureus 39, read-out: MIC S. aureus 39.

T1 sequence (P25774 115-331): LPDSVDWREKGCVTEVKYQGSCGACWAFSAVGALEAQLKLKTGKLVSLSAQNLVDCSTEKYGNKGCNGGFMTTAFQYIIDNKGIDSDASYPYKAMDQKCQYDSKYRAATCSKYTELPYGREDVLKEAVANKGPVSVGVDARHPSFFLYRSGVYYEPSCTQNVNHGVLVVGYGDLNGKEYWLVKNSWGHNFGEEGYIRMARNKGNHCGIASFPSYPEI

The inhibition is the percentage by which the read-out fell short of the control. `CN1CCC[C@H](NS(=O)(=O)C2CC2)C(=O)N2C[C@@H](NC(=O)Cc3ccc4ccccc4c3)C[C@H]2COc2ccccc2-c2cccc(c2)C1=O` [Ex. 21, N-[(10S,12S,16S)-16-[(cyclopropylsulfonyl)amino]-20-methyl-15,21-dioxo-8-oxa-14,20-diazatetracyclo[20.3.1.0^2,7.0^10,14]hexacosa-1(26),2,4,6,22,24-hexaen-12-yl]-2-(2-naphthyl)acetamide]: in experiment [1] (10 μM compound), the inhibition at 10 µM turned out to be 75%.
On the same count and under the same terms, in the case of `CCCCC(=O)N[C@H]1CCCN(C)C(=O)c2cccc(c2)-c2ccccc2OC[C@@H]2C[C@H](NC(=O)Cc3ccc4ccccc4c3)CN2C1=O` [Ex. 28, N-[(10S,12S,16S)-20-methyl-12-{[2-(2-naphthyl)acetyl]amino}-15,21-dioxo-8-oxa-14,20-diazatetracyclo[20.3.1.0^2,7.0^10,14]hexacosa-1(26),2,4,6,22,24-hexaen-16-yl]pentanamide] it was 57%.
For orientation: MIC means the lowest concentration found to suppress growth. Consider `CC(C)(C)OC(=O)N[C@@H]1C[C@H]2COc3cccc(c3)-c3cncc(c3)C(=O)NCCNCC(=O)N2C1` [Ex. 91, tert-butyl N-[(9S,11R)-14,20-dioxo-7-oxa-13,16,19,23-tetraazatetracyclo[19.3.1.1^2,6.0^9,13]hexacosa-1(25),2(26),3,5,21,23-hexaen-11-yl]carbamate], for which the minimal inhibitory concentration (MIC) in experiment [2] (setting [4]) was 4 µg/mL (≈ 8.07 µM); in experiment [2] (setting [5]) it was 2 to 4 µg/mL (≈ 4.04 to 8.07 µM); in experiment [2] (setting [6]) it was 2 µg/mL (≈ 4.04 µM); in experiment [2] (strain DSM 46320, read-out: MIC S. aureus DSM 46320) it was 4 µg/mL (≈ 8.07 µM); in experiment [2] (setting [7]) it was 8 µg/mL (≈ 16.1 µM); in experiment [3], above 16 µg/mL.
What is called % Inhibition is the share of the control response that was lost under treatment. On to `CC(C)CC(=O)N[C@H]1CCCN(C)C(=O)c2cccc(c2)-c2ccccc2OC[C@@H]2C[C@H](NC(=O)Cc3ccc4ccccc4c3)CN2C1=O` [Ex. 24, 3-methyl-N-[(10S,12S,16S)-20-methyl-12-{[2-(2-naphthyl)acetyl]amino}-15,21-dioxo-8-14,20-diazatetracyclo[20.3.1.0^2,7.0^10,14]hexacosa-1(26),2,4,6,22,24-hexaen-16-yl]butanamide], for which the “% Inhibition at 10 μM” value in experiment [1] (10 μM compound) turned out to be 55%.
Turning to `CCCC(=O)N[C@H]1CCCN(C)C(=O)c2cccc(c2)-c2ccccc2OC[C@@H]2C[C@H](NC(=O)Cc3ccc4ccccc4c3)CN2C1=O` [Ex. 27, N-[(10S,12S,16S)-20-methyl-12-{[2-(2-naphthyl)acetyl]amino)-15,21-dioxo-8-oxa-14,20-diazatetracyclo[20.3.1.0^2,7.0^10,14]hexacosa-1(26),2,4,6,22,24-hexaen-16-yl]butanamide], in experiment [1] (10 μM compound), the inhibition at 10 µM is 50%.
As a reminder, the IC50 is the concentration that gives 50% inhibition. `CN(C)CC(=O)N[C@H]1CCCN(C)C(=O)c2cccc(c2)-c2ccccc2OC[C@@H]2C[C@H](NC(=O)Cc3ccc4ccccc4c3)CN2C1=O` [Ex. 20, 2-(dimethylamino)-N-[(10S,12S,16S)-20-methyl-12-{[2-(2-naphthyl)acetyl]amino}-15,21-dioxo-8-oxa-14,20-diazatetracyclo[20.3.1.0^2,7.0^10,14]hexacosa-1(26),2,4,6,22,24-hexaen-16-yl]acetamide]: in experiment [1], the IC50 stood at 14.7 µM. Further, the inhibition at 10 µM in experiment [1] (10 μM compound) was 45%.
As for `CC(C)(C)OC(=O)N[C@H]1C[C@H]2COc3cccc(c3)-c3ccccc3C(=O)NCC[C@@H](N)C(=O)N2C1` [Ex. 2, tert-butyl N-[(12R,16S,18S)-12-amino-8,13-dioxo-20-oxa-9,14-diazatetracyclo[19.3.1.0^2,7.0^14,18]pentacosa-1(25),2,4,6,21,23-hexaen-16-yl]carbamate], the minimum inhibitory concentration (MIC) in experiment [2] (setting [4]) is 16 µg/mL (≈ 32.3 µM); in experiment [2] (setting [5]), 8 to 16 µg/mL (≈ 16.2 to 32.3 µM); in experiment [2] (setting [6]), 8 to 16 µg/mL (≈ 16.2 to 32.3 µM); in experiment [2] (setting [7]) it was 4 µg/mL (≈ 8.09 µM); in experiment [3], 8 µg/mL (≈ 16.2 µM).

The record behind these values is US10017481B2, “Conformationally constrained, fully synthetic macrocyclic compounds” (POLYPHOR AG, priority 2012, dated 2018).
